From article PMC6391970, “Design, Synthesis and Characterization of Covalent KDM5 Inhibitors” (Angewandte Chemie (International Ed. in English), 2018)

What was measured:
KDM5C = KDM5C (Homo sapiens, UniProt P41229); test: Covalent binding by MS, KDM5C; settings: same conditions as with KDM5B
KDM4B = target: T1, KDM4B (Homo sapiens, UniProt O94953); test: Covalent binding by MS, KDM4B; settings: same conditions as with KDM5B
T1 sequence (O94953 1-1096): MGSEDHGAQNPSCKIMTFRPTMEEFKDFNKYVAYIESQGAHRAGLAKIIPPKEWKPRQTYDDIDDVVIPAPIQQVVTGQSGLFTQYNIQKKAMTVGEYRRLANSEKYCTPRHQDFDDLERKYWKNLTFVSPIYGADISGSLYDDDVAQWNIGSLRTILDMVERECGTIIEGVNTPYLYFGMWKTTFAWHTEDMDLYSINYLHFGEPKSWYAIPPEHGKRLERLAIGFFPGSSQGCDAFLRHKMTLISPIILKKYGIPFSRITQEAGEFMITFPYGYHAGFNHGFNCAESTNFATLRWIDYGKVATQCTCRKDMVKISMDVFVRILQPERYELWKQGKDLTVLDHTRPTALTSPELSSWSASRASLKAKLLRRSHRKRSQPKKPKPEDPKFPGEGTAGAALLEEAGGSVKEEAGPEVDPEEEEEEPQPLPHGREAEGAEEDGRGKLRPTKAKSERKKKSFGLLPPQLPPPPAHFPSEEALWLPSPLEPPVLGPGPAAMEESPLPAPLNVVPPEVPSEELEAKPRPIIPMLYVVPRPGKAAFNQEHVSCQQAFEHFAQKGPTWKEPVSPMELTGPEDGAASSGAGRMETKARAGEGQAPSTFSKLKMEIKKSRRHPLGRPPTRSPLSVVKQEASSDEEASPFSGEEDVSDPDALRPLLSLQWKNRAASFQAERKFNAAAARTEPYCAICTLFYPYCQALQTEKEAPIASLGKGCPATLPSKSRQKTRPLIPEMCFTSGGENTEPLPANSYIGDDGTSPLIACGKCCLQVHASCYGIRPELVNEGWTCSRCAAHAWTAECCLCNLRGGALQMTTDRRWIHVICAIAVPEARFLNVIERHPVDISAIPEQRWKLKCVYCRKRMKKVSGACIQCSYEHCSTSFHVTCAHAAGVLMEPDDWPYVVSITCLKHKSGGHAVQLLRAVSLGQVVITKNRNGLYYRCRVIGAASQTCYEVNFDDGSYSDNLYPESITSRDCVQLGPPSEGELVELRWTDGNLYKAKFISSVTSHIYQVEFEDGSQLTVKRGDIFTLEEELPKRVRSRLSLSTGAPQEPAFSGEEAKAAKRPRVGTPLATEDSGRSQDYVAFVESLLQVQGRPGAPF
Description: Covalent binding of the inhibitors with KDM5B was confirmed through MS‐labelling experiments (Figure 3). […] The specific covalent binding to KDM5B explains the improved selectivity over KDM5C and KDM4B compared to non‐covalent inhibitor 2.
Covalent binding RapidFire
Recombinant KDM5B (MW = 55152 Da) was incubated at 1 μM with the appropriate compound at 10 μM for 2 hours at 37 °C in 50 mM MES buffer at pH 7.0. Samples were injected in RapidFire 365 and MS was detected in QTOF mass spectrometer. Data were acquire and analysed with Agilent Mass Hunter software.
Recombinant KDM5B was incubated at 1 μM with the appropriate compound at 10 μM for 2 hours at 37 °C in 200 µL of 50 mM MES buffer at pH 7.0. […]
Digestion with elastase (1 µL) overnight at 37 °C followed by purification with SEP-PAK C18 columns and resuspension of the final sample in 98% MilliQ-H20 2% CH3CN 0.1% TFA gave the final sample ready to inject. […]
NanoBRET™ Nano-Glo® substrate (Promega UK) and Extracellular NanoLuc Inhibitor (Promega UK) were added at final concentrations of 10 and 20 µM, respectively. Readings were performed within 5 minutes using a PHERAstar FSX (BMG Labtech) with 450 and 610 nm filters. Corrected BRET ratios were calculated and is defined as the ratio if the emission at 610/450 nm for experimental samples (i.e. those treated with tracer) minus the emission at 610/450 nm for control samples (DMSO controls). […]

KDM5C, sequence (P41229 whole entry): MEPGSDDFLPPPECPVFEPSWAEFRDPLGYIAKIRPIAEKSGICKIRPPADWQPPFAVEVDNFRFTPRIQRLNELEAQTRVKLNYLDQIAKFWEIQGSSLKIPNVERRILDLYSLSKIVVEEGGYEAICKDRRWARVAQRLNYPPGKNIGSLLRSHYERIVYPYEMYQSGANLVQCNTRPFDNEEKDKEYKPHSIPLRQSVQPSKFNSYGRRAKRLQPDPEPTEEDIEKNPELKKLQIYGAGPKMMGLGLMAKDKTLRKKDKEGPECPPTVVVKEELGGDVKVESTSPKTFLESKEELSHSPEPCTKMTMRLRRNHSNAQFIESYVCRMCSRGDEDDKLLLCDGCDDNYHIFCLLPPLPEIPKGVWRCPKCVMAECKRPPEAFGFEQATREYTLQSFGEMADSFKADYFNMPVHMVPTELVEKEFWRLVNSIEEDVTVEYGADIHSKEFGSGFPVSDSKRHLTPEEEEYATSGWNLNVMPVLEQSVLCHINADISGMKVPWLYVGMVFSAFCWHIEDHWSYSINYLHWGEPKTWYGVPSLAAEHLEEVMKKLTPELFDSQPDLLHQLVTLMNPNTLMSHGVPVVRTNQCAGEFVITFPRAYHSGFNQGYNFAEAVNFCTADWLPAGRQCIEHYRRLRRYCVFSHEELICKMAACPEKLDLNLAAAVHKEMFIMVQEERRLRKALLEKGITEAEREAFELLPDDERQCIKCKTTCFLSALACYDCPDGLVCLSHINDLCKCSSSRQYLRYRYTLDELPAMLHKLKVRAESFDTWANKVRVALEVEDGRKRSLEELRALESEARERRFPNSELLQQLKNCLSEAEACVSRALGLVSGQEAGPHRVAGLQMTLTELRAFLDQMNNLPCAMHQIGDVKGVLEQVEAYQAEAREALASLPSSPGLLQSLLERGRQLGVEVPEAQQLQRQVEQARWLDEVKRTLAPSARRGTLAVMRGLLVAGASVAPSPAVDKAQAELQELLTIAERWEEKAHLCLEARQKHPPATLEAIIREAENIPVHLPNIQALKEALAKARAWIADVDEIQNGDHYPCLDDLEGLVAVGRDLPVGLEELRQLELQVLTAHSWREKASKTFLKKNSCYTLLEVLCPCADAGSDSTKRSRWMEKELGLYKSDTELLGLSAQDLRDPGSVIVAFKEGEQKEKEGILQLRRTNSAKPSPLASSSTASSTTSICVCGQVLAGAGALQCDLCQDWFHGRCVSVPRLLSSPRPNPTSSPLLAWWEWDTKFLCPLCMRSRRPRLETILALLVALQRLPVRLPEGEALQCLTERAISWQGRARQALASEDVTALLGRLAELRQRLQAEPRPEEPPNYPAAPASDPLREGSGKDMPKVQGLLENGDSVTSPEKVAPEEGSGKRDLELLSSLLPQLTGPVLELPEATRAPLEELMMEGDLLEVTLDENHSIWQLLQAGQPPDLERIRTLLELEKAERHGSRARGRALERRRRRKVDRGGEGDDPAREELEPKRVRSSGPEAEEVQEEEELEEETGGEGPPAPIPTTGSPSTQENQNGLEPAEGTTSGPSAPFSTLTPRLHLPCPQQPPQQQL

covalent binding to KDM5C by MS (KDM5C): no covalent binding | covalent binding to KDM4B by MS (KDM4B): no covalent binding
Compound: CN(C)C/C=C/C(=O)Nc1cccc(CN(C)CCc2cnn(-c3nccc4c(=O)[nH]cnc34)c2)c1 [Compound 6]
